Results taken from patent publication US9420795B2, “Glycolate formulation for preserving wood and like materials” (Matterworks One Limited, priority 2011, dated 2016).

Assay: Solubility of precipitated copper glycerolate
Details: suspended in water, pH reduced with sulphuric acid

pH at which the suspended precipitate re-dissolved: around 4
Substance: copper (II) glycerolate [copper glycerolate]
